Experimental data published in PubChem BioAssay AID179 (DTP/NCI, 2004).
The source made the active and inactive calls.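 The calls were made as follows: active = compounds giving half or more protection of infected cells from virus-caused growth loss, again on retest; inactive = the rest.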

Test system: CEM cells HIV-1 protection, formazan growth assay
Test: NCI AIDS Antiviral Assay
Settings: for IC50: measured here: growth of uninfected CEM cells
Method in brief: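 Protection of CEM cells against HIV-1 measured as cell growth via soluble formazan read-out, with five concentrations tested on both infected and uninfected cells; failure to protect may reflect toxicity.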

| SMILES | EC50 [µM] | IC50 [µM] | outcome |
| --- | --- | --- | --- |
| CCOc1ccccc1-c1nc2c(s1)C(=O)c1ccccc1C2=O | > 200 | 32.4 |  |
| O=C(CC(=O)n1nc(-c2ccccc2)c(N=Nc2ccccc2C(=O)O)c1-c1ccccc1)Nc1ccc(Cl)cc1 | > 200 | 77.6 |  |
| CS(=O)(=O)OCCN(CCOS(C)(=O)=O)c1ccc(C=Nc2ccc(-c3csc(COc4ccccc4)n3)cc2)cc1 | > 200 | 0.457 |  |
| COc1cc(N=Nc2ccccc2C(=O)[O-])cc(/C=N/NC(N)=S)c1[O-].[O]=[Mo]=[O].[O]=[Mo]=[O] |  |  | inactive |
| CCCCCCCCCCNCCSSc1ccccc1 | > 200 | 4.27 |  |
| COc1cc(/C=C/C(=O)CC(=O)/C=C/c2ccc(OC(=O)CCCCC3CCSS3)c(OC)c2)ccc1OC(=O)CCCCC1CCSS1 (configuration not stated) | > 200 | > 200 |  |
| CC(C)(C)C1C=C(Sc2ccccc2)C(=O)O1 (configuration not stated) | > 120 | 21.4 |  |
| O=C1CSC(C(N=Nc2ccc(Cl)cc2)c2nc3ccccc3[nH]2)=N1 (configuration not stated) | > 1.95 | > 1.95 |  |
| CCC[CH2][Sn]1([CH2]CCC)[O]CC(Cc2ccccc2)[O]1 (configuration not stated) | > 17 | 0.331 |  |
| CCOC(=O)Cn1c(=O)n(C)c(=O)c2c1ncn2Cc1ccccc1 | > 724 | 427 |  |
| COC(=O)C12C34C=CC5(CCC6(C=CC1(CC3)O6)C52C(=O)OC)O4 (configuration not stated) |  |  | inactive |
| CC(C)(C)C1=CC(=Nc2ccc([N+](=O)[O-])cc2[N+](=O)[O-])C=C(C(C)(C)C)C1=O | > 13.5 | > 13.5 |  |
| CC(=O)OCC(=O)[C@@]1(O)CC[C@H]2[C@@H]3C[C@H](C)C4=CC(=O)C=C[C@]4(C)[C@@]3(F)[C@@H](O)C[C@@]21C |  |  | inactive |
| O=C(CCCCC[n+]1ccccc1)Sc1ccccc1C(=O)NCc1ccc2c(c1)OCO2 | > 34.7 | 5.37 |  |
| N#Cc1c(C#N)c(-c2cccc([N+](=O)[O-])c2)n(-c2ccccc2)c1N | > 200 | 141 |  |
| O=C(C(=C(I)I)c1ccccc1)c1ccccc1 | > 200 | 19.5 |  |
| Cc1cc(C#N)c(=S)n(C2OC(CO)C(O)C(O)C2O)c1C (configuration not stated) | > 200 | > 200 |  |
| Fc1ccc2c(c1)CN(CCN1COc3ccc(F)cc3C1)CO2 | > 8.13 | > 8.13 |  |
| O=c1ccn([C@H]2CSC[C@@H](CO)C2)c(=O)[nH]1 | > 1020 | > 1020 |  |
| COc1cc2c(c(OC)c1OC)C(=O)C1C2N1C(=O)CCCCl (configuration not stated) | > 200 | > 200 |  |
| Cc1ccc(NC(=O)CCc2nnc(N)o2)cc1 | > 380 | > 380 |  |
| OC1OCC(COc2cc(Cl)c(Cl)cc2Cl)OC1O (configuration not stated) | > 30.2 | > 30.2 |  |

| SMILES | EC50 [µM] | IC50 [µM] | outcome |
| --- | --- | --- | --- |
| Nc1ncnc2c1ncn2C1SC(CO)C(O)C1O (configuration not stated) | 45.7 | 148 |  |
| CCS1=C2C(=O)CC(C)(C)CC2=Nc2ccccc21 (configuration not stated) | > 200 | > 200 |  |
| CCCCC(C)CCC(=O)C1=C(O)C(CC(=O)O)OC1=O (configuration not stated) | > 83.2 | > 83.2 |  |
| CC(C)(C)NNC(=O)/C(=C/c1ccc([N+](=O)[O-])cc1)NC(=O)c1ccccc1 | > 7.08 | > 7.08 |  |
| NCC(O)c1cc(I)c(Oc2ccc(O)cc2)c(I)c1 (configuration not stated) | > 200 | 15.5 |  |
| COC1=C(OC)CCC(/C(C#N)=C/c2ccc(OC)c(OC)c2)=C1 | > 41.7 | 21.4 |  |
| CSc1ccc(/C=C/c2ccnc3ccccc23)cc1 | > 13.5 | > 13.5 |  |
| C=C1CC/C=C(/C(=O)O)CC[C@H]2[C@@H]1CC2(C)C | > 200 | 178 |  |
| O=[N+]([O-])c1ccc(N=P(c2ccccc2)(c2ccccc2)c2ccccc2)n2nnnc12 |  |  | inactive |
| CCN(CC)CCOc1ccc(/C(C#N)=C/c2ccc(C(F)(F)F)cc2)cc1 | > 20 | 1.23 |  |
| CN(CCN1C(=O)c2cccc3cc(N)cc(c23)C1=O)CCN1C(=O)c2cccc3cc(N)cc(c23)C1=O | > 21.9 | 0.155 |  |
| COc1cc(CNC2=NCCC2)cc(OC)c1OC | > 200 | 47.9 |  |
| CC(=O)N(CCCCNC(=O)C(F)(F)F)CCCNC(=O)C(F)(F)F | > 200 | > 200 |  |
| COc1cc2c(c(OC)c1OC)C(=O)[C@H]1OC(=O)N[C@@H]21 | > 200 | > 200 |  |
| COC(O)C12OC3CO[Si](C(C)C)(C(C)C)O[Si](C(C)C)(C(C)C)OC3C1Oc1nc(=O)ccn12 (configuration not stated) | > 200 | 30.2 |  |
| c1c2c(cc3c1OCN(C1CC1)C3)OCN(C1CC1)C2 | > 51.3 | 4.27 |  |
| c1ccc([P+](CCC[P+](c2ccccc2)(c2ccccc2)c2ccccc2)(c2ccccc2)c2ccccc2)cc1 | > 200 | 135 | inactive |
| Cn1c(=O)c2c(nc3n(C)c(=O)c4ccccc4n23)n(C)c1=O | > 200 | 2.51 |  |
| CC(=O)NNc1nc(C)c(C(=O)NNC(=O)C(=O)Nc2ccc(Cl)cc2)s1 |  |  | inactive |
| COc1cc(SSc2cc(OC)cc([N+](=O)[O-])c2N)c(N)c([N+](=O)[O-])c1 | 4.47 | 15.5 |  |
| COc1ccc(CCN2CCc3c(C)c(C#N)c4nc5ccccc5n4c32)cc1OC | > 200 | 53.7 |  |
| Oc1c(Br)cc(Br)cc1-c1[nH]c(Br)c(Br)c1Br | > 234 | 1.02 |  |

| SMILES | EC50 [µM] | IC50 [µM] | outcome |
| --- | --- | --- | --- |
| COc1cc2c(cc1OC)-c1cc3ccc(OC)c(OC)c3c[n+]1CC2 | > 324 | 145 |  |
| CN(C)c1nc(=NCc2ccncc2)ss1 | > 200 | 10.7 |  |
| O=[N+]([O-])/C=C/c1cn(CCCCCCCCn2cc(/C=C/[N+](=O)[O-])c3ccccc32)c2ccccc12 | > 200 | 35.5 |  |
| Cc1ccc(S(=O)(=O)NC(=O)NC2=NC(C)(C)N(c3ccc(Cl)c(Cl)c3)C(N)=N2)cc1 | > 200 | 4.27 |  |
| O=C(O)c1ccccc1-c1c2cc([N+](=O)[O-])c(=O)c(Br)c-2oc2c(Br)c(O)c([N+](=O)[O-])cc12 | > 316 | 8.13 |  |
| CC1C2CC(CC2(C)O)C1(C)C (configuration not stated) | > 562 | > 562 |  |
| CCOc1ccc(/C=C2/C(=O)N(/C=C3/C(=O)Oc4ccccc4C3=O)C(=NC(C)=O)N2C)cc1 | > 200 | > 200 |  |
| C=CC1CC1(CO)COc1cc(Cl)nc(N)n1 (configuration not stated) | > 200 | 141 |  |
| O=[N+]([O-])c1ccc(CSC2=C(c3ccc(Cl)cc3)S/C(=C3\SC(SCc4ccc([N+](=O)[O-])cc4)=C(c4ccc(Cl)cc4)S3)S2)cc1 | > 200 | > 200 |  |
| CC(C)NCCNC(=O)c1ccccc1Nc1c(Cl)cccc1Cl | > 200 | 14.8 |  |
| COc1cc(=O)cc(Cl)c(Cl)c1Cl |  |  | inactive |
| c1ccc2c(c1)NC(SSC1Nc3ccccc3S1)S2 (configuration not stated) | > 200 | > 200 |  |
| Cc1ccc(NC(=O)/C(=N/N(C)C)C(C2OC(=O)c3ccccc32)[N+](=O)[O-])cc1 (configuration not stated) | > 47.9 | > 47.9 |  |
| Cc1c2c(cc3c1OCN(Cc1ccccc1)C3)CN(Cc1ccccc1)CO2 | > 200 | 30.9 |  |
| COC(=O)C(CCC(=O)O)N1C(=O)c2ccccc2C1=O (configuration not stated) | > 200 | > 200 |  |
| C/C=C(\C)c1cc(O)c(C)c2c1Oc1cc(O)c(Cl)c(C)c1C(=O)O2 |  |  | inactive |
| NC(=O)c1nc2ccccc2nc1Nc1ccc(Cl)cc1Cl | > 1.58 | > 1.58 |  |
| O=C1C2C3C=CC(O3)C2C(=O)N1/N=C\C(O)C(O)C(O)C(O)CO (configuration not stated) | > 129 | > 129 |  |
| CON(C)C(=O)C(C)NC(=O)OCc1ccccc1 (configuration not stated) | > 933 | 813 |  |
| CCOP(=O)(OCC)C(C)(C)OC(=O)NC(F)(F)F | > 200 | > 200 |  |
| COC(=O)C1(C(=O)OC)CC2=C(S(=O)(=O)c3ccccc3)C[C@H](C#N)[C@H]2C1 | > 200 | 58.9 |  |
| Cc1c2cccc1CSCc1cccc(c1C)CSC2 | > 123 | > 123 |  |

| SMILES | EC50 [µM] | IC50 [µM] | outcome |
| --- | --- | --- | --- |
| Cc1ccc(C(=O)c2ccccc2C(=O)O)cc1C(=O)O | > 200 | > 200 |  |
| O=C1CC(c2ccc(Cl)cc2)NC(=O)N1CCCl (configuration not stated) | > 200 | > 200 |  |
| O=C1c2ccsc2C(=O)c2ccsc21 | > 6.61 | 5.13 |  |
| O=C1c2ccccc2C(=O)c2c1nnn2-c1ccccc1 | > 200 | 3.55 |  |
| O=S1(=O)CCCS(=O)(=O)C(c2ccccc2)=C1c1ccccc1 | > 145 | 50.1 |  |
| O=C(O/N=C1\CCCC\C1=C/c1ccccc1)c1ccc([N+](=O)[O-])cc1 |  |  | inactive |
| COc1ccc(/C=C\c2cc(OC)c(OC)c(OC)c2)cc1OC(=O)CC(NC(=O)OC(C)(C)C)C(=O)OC(C)(C)C (configuration not stated) | > 2 | 0.00331 |  |
| CN=C(NC)c1ncn(C2OC(CO)C(O)C2O)n1 (configuration not stated) |  |  | inactive |
| COc1ccc(OC(C)C(=O)O)c2c(=O)ccccc12 (configuration not stated) |  |  | inactive |
| COc1ccc(OCc2ccc3nc(-c4ccccc4)c(Cl)nc3c2)cc1 | > 200 | 20.4 |  |
| O=C(CC(=O)c1cccc2ccccc12)C(=O)Nc1nccs1 | > 30.9 | > 30.9 |  |
| COc1ccc2nc3cc([N+](=O)[O-])ccc3c(NCCCCCN(C)C)c2c1 | > 2 | 0.138 |  |
| CC(=S)N=Cc1c(O)cc(C)oc1=O | > 200 | > 200 |  |
| COc1cc(N=Nc2cc(NC(C)=O)c(N=Nc3ccc(C(=O)O)cc3)cc2S(=O)(=O)O)c(C)cc1N=Nc1ccc(NC(=O)c2ccc(N)cc2)cc1C | 14.1 | > 100 |  |
| Cc1[nH]c(=O)[nH]c(=O)c1Cc1ccc(Cl)cc1 | > 200 | > 200 |  |
| N#C/C(=C1\N=C(c2ccccc2O)Oc2ccccc21)c1ccc([N+](=O)[O-])cc1 | > 100 | > 100 |  |
| O=C1CC(C(COCc2ccccc2)OCc2ccccc2)CC(=O)N1 (configuration not stated) | > 200 | > 200 |  |
| CCCCCCC(C)CCCCCCCCCCC(=O)OCC(COP(=O)([O-])OCC[N+](C)(C)C)OC(=O)CCCCCCCCCCC(C)CCCCCC (configuration not stated) |  |  | inactive |
| CCCCOCc1cc(CN2CCN(C)CC2)c(O)c2ncccc12 | > 145 | 8.71 |  |
| C=C(COC(=O)C(C)C)[C@H]1Oc2ccc(C(C)=O)cc2[C@@H]1OC(=O)C(C)C | > 200 | > 200 |  |
